{
  "source": "paper PMC12655637",
  "about": "“Design, Synthesis, and Mechanistic Study of Novel Ciprofloxacin/Thiazole Chalcone Hybrids as Potential Anticancer Agents” (Pharmaceuticals, 2025)",
  "assay_in_all_cases": "NCI-60 screening, one-dose (10 µM) and five-dose, SRB",
  "key": {"SK-MEL-5": {"test_system": "SK-MEL-5", "assay_type": "cell-based, human"}, "HS 578T": {"test_system": "HS 578T", "assay_type": "cell-based, human"}, "IGROV1": {"test_system": "IGROV1", "assay_type": "cell-based, human"}, "TK-10": {"test_system": "TK-10", "assay_type": "cell-based, human"}, "CAKI-1": {"test_system": "CAKI-1", "assay_type": "cell-based"}, "PC-3": {"test_system": "PC-3", "assay_type": "cell-based, human"}, "KM12": {"test_system": "KM12", "assay_type": "cell-based, human", "details": "five-dose, KM12"}, "NCI-H226": {"test_system": "NCI-H226", "assay_type": "cell-based, human"}, "MDA-MB231/ATCC": {"test_system": "MDA-MB231/ATCC", "assay_type": "cell-based"}, "COLO 205": {"test_system": "COLO 205", "assay_type": "cell-based, human"}, "HT29": {"test_system": "HT29", "assay_type": "cell-based, human"}, "ACHN": {"test_system": "ACHN", "assay_type": "cell-based, human"}, "SK-OV-3": {"test_system": "SK-OV-3", "assay_type": "cell-based, human"}, "NCI-H460": {"test_system": "NCI-H460", "assay_type": "cell-based, human", "details": "five-dose, NCI-H460"}, "NCI-H23": {"test_system": "NCI-H23", "assay_type": "cell-based, human", "details": "Homo sapiens"}, "[1]": {"details": "Homo sapiens, five-dose, SK-MEL-5"}, "[2]": {"details": "Homo sapiens, five-dose, read-out: LC50 (the source's name)"}, "[3]": {"details": "Homo sapiens, IGROV-1, five-dose, IGROV1"}, "[4]": {"details": "Homo sapiens, five-dose, CAKI-1"}, "[5]": {"details": "Homo sapiens, five-dose, NCI-H226"}, "[6]": {"details": "Homo sapiens, five-dose, COLO 205"}, "[7]": {"details": "Homo sapiens, HT-29, five-dose, HT29"}, "[8]": {"details": "Homo sapiens, five-dose, SK-OV-3"}},
  "data": [
    {"smiles": "Cc1nc(SCC(=O)N2CCN(c3cc4c(cc3F)c(=O)c(C(=O)O)cn4C3CC3)CC2)sc1C(=O)/C=C/c1cccc(F)c1", "note": "[Compound 4d, (E)-1-Cyclopropyl-6-fluoro-7-(4-(2-((5-(3-(3-fluorophenyl)acryloyl)-4-methylthiazol-2-yl)thio)acetyl)piperazin-1-yl)-4-oxo-1,4-dihydroquinoline-3-carboxylic Acid]", "values": [
      {"measurement": "activity at 10 µM", "setting": "SK-MEL-5; Homo sapiens, 10 μM, SK-MEL-5, Melanoma, read-out: Growth percentage", "result": 45.1, "unit": "%"},
      {"measurement": "GI50", "setting": "SK-MEL-5; [1]", "result": 42.7, "unit": "µM"},
      {"measurement": "IC50", "setting": "SK-MEL-5; [1]", "result": "> 100", "unit": "µM"},
      {"measurement": "CC50", "setting": "SK-MEL-5; Homo sapiens, five-dose, SK-MEL-5, read-out: LC50 (the source's name)", "result": "> 100", "unit": "µM"},
      {"measurement": "TGI", "setting": "SK-MEL-5; five-dose, SK-MEL-5", "result": 100.0, "unit": "µM"},
      {"measurement": "activity at 10 µM", "setting": "HS 578T; Homo sapiens, 10 μM, Breast Cancer, read-out: Growth percentage", "result": 36.2, "unit": "%"},
      {"measurement": "GI50", "setting": "HS 578T; Homo sapiens, five-dose", "result": "> 100", "unit": "µM"},
      {"measurement": "IC50", "setting": "HS 578T; Homo sapiens, five-dose", "result": "> 100", "unit": "µM"},
      {"measurement": "CC50", "setting": "HS 578T; [2]", "result": "> 100", "unit": "µM"},
      {"measurement": "TGI", "setting": "HS 578T; five-dose", "result": 28.2, "unit": "µM"},
      {"measurement": "Growth percentage", "setting": "IGROV1; 10 μM, IGROV1, Ovarian Cancer", "result": 44.6, "unit": "%"},
      {"measurement": "GI50", "setting": "IGROV1; [3]", "result": "> 100", "unit": "µM"},
      {"measurement": "IC50", "setting": "IGROV1; [3]", "result": "> 100", "unit": "µM"},
      {"measurement": "CC50", "setting": "IGROV1; Homo sapiens, IGROV-1, five-dose, IGROV1, read-out: LC50 (the source's name)", "result": "> 100", "unit": "µM"},
      {"measurement": "TGI", "setting": "IGROV1; five-dose, IGROV1", "result": 100.0, "unit": "µM"},
      {"measurement": "activity at 10 µM", "setting": "TK-10; Homo sapiens, 10 μM, TK-10, Renal Cancer, read-out: Growth percentage", "result": 97.5, "unit": "%"},
      {"measurement": "GI50", "setting": "TK-10; Homo sapiens, five-dose, TK-10", "result": "> 100", "unit": "µM"},
      {"measurement": "IC50", "setting": "TK-10; Homo sapiens, five-dose, TK-10", "result": "> 100", "unit": "µM"},
      {"measurement": "CC50", "setting": "TK-10; Homo sapiens, five-dose, TK-10, read-out: LC50 (the source's name)", "result": "> 100", "unit": "µM"},
      {"measurement": "TGI", "setting": "TK-10; five-dose, TK-10", "result": 100.0, "unit": "µM"},
      {"measurement": "activity at 10 µM", "setting": "CAKI-1; Homo sapiens, 10 μM, CAKI-1, Renal Cancer, read-out: Growth percentage", "result": 79.8, "unit": "%"},
      {"measurement": "GI50", "setting": "CAKI-1; [4]", "result": "> 100", "unit": "µM"},
      {"measurement": "IC50", "setting": "CAKI-1; [4]", "result": "> 100", "unit": "µM"},
      {"measurement": "CC50", "setting": "CAKI-1; Homo sapiens, five-dose, CAKI-1, read-out: LC50 (the source's name)", "result": "> 100", "unit": "µM"},
      {"measurement": "TGI", "setting": "CAKI-1; five-dose, CAKI-1", "result": 100.0, "unit": "µM"},
      {"measurement": "activity at 10 µM", "setting": "PC-3; Homo sapiens, 10 μM, PC-3, Prostate Cancer, read-out: Growth percentage", "result": 53.4, "unit": "%"},
      {"measurement": "GI50", "setting": "PC-3; Homo sapiens, five-dose, PC-3", "result": 51.3, "unit": "µM"},
      {"measurement": "IC50", "setting": "PC-3; Homo sapiens, five-dose, PC-3", "result": "> 100", "unit": "µM"},
      {"measurement": "CC50", "setting": "PC-3; Homo sapiens, five-dose, PC-3, read-out: LC50 (the source's name)", "result": "> 100", "unit": "µM"},
      {"measurement": "TGI", "setting": "PC-3; five-dose, PC-3", "result": 100.0, "unit": "µM"},
      {"measurement": "GI50", "setting": "KM12; Homo sapiens", "result": 0.52, "unit": "µM"},
      {"measurement": "IC50", "setting": "KM12; Homo sapiens", "result": 0.69, "unit": "µM"},
      {"measurement": "LC50", "setting": "KM12; Homo sapiens", "result": 6.92, "unit": "µM"},
      {"measurement": "TGI", "setting": "KM12", "result": 97.7, "unit": "µM"},
      {"measurement": "activity at 10 µM", "setting": "NCI-H226; Homo sapiens, 10 μM, NCI-H226, Non-Small-Cell Lung Cancer, read-out: Growth percentage", "result": 70.9, "unit": "%"},
      {"measurement": "GI50", "setting": "NCI-H226; [5]", "result": "> 100", "unit": "µM"},
      {"measurement": "IC50", "setting": "NCI-H226; [5]", "result": "> 100", "unit": "µM"},
      {"measurement": "LC50 (concentration killing 50% of cells)", "setting": "NCI-H226; [5]", "result": "> 100", "unit": "µM"},
      {"measurement": "TGI", "setting": "NCI-H226; five-dose, NCI-H226", "result": 100.0, "unit": "µM"},
      {"measurement": "GI50", "setting": "MDA-MB231/ATCC; Homo sapiens, MDA-MB-231", "result": "> 100", "unit": "µM"},
      {"measurement": "IC50", "setting": "MDA-MB231/ATCC; Homo sapiens, MDA-MB-231", "result": "> 100", "unit": "µM"},
      {"measurement": "CC50", "setting": "MDA-MB231/ATCC; Homo sapiens, five-dose, MDA-MB-231/ATCC, read-out: LC50 (the source's name)", "result": "> 100", "unit": "µM"},
      {"measurement": "TGI", "setting": "MDA-MB231/ATCC; five-dose, MDA-MB-231/ATCC", "result": 100.0, "unit": "µM"},
      {"measurement": "activity at 10 µM", "setting": "COLO 205; Homo sapiens, 10 μM, COLO 205, Colon Cancer, read-out: Growth percentage", "result": 102, "unit": "%"},
      {"measurement": "GI50", "setting": "COLO 205; [6]", "result": 4.9, "unit": "µM"},
      {"measurement": "IC50", "setting": "COLO 205; [6]", "result": 9.3, "unit": "µM"},
      {"measurement": "CC50", "setting": "COLO 205; Homo sapiens, five-dose, COLO 205, read-out: LC50 (the source's name)", "result": "> 100", "unit": "µM"},
      {"measurement": "TGI", "setting": "COLO 205; five-dose, COLO 205", "result": 19.95, "unit": "µM"},
      {"measurement": "activity at 10 µM", "setting": "HT29; Homo sapiens, HT-29, 10 μM, HT29, Colon Cancer, read-out: Growth percentage", "result": 3.7, "unit": "%"},
      {"measurement": "GI50", "setting": "HT29; [7]", "result": "> 100", "unit": "µM"},
      {"measurement": "IC50", "setting": "HT29; [7]", "result": 100, "unit": "µM"},
      {"measurement": "CC50", "setting": "HT29; Homo sapiens, HT-29, five-dose, HT29, read-out: LC50 (the source's name)", "result": "> 100", "unit": "µM"},
      {"measurement": "TGI", "setting": "HT29; five-dose, HT29", "result": 1.91, "unit": "µM"},
      {"measurement": "activity at 10 µM", "setting": "ACHN; Homo sapiens, 10 μM, Renal Cancer, read-out: Growth percentage", "result": 94.4, "unit": "%"},
      {"measurement": "GI50", "setting": "ACHN; Homo sapiens, five-dose", "result": "> 100", "unit": "µM"},
      {"measurement": "IC50", "setting": "ACHN; Homo sapiens, five-dose", "result": "> 100", "unit": "µM"},
      {"measurement": "CC50", "setting": "ACHN; [2]", "result": "> 100", "unit": "µM"},
      {"measurement": "TGI", "setting": "ACHN; five-dose", "result": 100.0, "unit": "µM"},
      {"measurement": "activity at 10 µM", "setting": "SK-OV-3; Homo sapiens, 10 μM, SK-OV-3, Ovarian Cancer, read-out: Growth percentage", "result": 5, "unit": "%"},
      {"measurement": "GI50", "setting": "SK-OV-3; [8]", "result": "> 100", "unit": "µM"},
      {"measurement": "IC50", "setting": "SK-OV-3; [8]", "result": "> 100", "unit": "µM"},
      {"measurement": "CC50", "setting": "SK-OV-3; Homo sapiens, five-dose, SK-OV-3, read-out: LC50 (the source's name)", "result": "> 100", "unit": "µM"},
      {"measurement": "TGI", "setting": "SK-OV-3; five-dose, SK-OV-3", "result": 100.0, "unit": "µM"},
      {"measurement": "GI50", "setting": "NCI-H460; Homo sapiens", "result": "> 100", "unit": "µM"},
      {"measurement": "IC50", "setting": "NCI-H460; Homo sapiens", "result": "> 100", "unit": "µM"},
      {"measurement": "CC50", "setting": "NCI-H460; Homo sapiens, read-out: LC50 (the source's name)", "result": "> 100", "unit": "µM"},
      {"measurement": "TGI", "setting": "NCI-H460", "result": 100.0, "unit": "µM"},
      {"measurement": "activity at 10 µM", "setting": "NCI-H23; 10 μM, NCI-H23, Non-Small-Cell Lung Cancer, read-out: Growth percentage", "result": 45.6, "unit": "%"},
      {"measurement": "GI50", "setting": "NCI-H23; five-dose, NCI-H23", "result": "> 100", "unit": "µM"}
    ]}
  ]
}
